According to ChEMBL document CHEMBL1909046, “DrugMatrix in vitro pharmacology data”:

How the values were obtained:
[1] = target: Sodium-dependent dopamine transporter (Homo sapiens, UniProt Q01959); assay: DRUGMATRIX: Dopamine Transporter radioligand binding (ligand: [125I] RTI-55); type: cell membranes, CHO-K1, Membrane; settings: Not Active = under 50% inhibition at 10 µM
[2] = target: T1, Alpha-1A adrenergic receptor (Rattus norvegicus, UniProt P43140); assay: DRUGMATRIX: Alpha-1A adrenergic receptor radioligand binding (ligand: prazosin); type: cell membranes, Wistar, Submaxillary gland, Membrane; settings: Not Active = under 50% inhibition at 10 µM
T1 sequence (P43140 whole entry): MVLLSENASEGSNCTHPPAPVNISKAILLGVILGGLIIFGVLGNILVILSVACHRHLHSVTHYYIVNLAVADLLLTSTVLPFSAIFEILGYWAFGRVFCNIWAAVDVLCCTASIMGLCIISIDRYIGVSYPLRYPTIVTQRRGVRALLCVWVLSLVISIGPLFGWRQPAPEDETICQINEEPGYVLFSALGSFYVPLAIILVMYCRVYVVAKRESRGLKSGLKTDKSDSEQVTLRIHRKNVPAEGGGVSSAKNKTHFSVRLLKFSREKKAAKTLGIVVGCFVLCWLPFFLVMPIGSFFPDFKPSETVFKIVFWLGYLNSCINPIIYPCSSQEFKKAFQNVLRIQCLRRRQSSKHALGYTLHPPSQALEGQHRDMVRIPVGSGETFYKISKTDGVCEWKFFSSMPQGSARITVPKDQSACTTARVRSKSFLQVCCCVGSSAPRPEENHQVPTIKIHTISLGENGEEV

[3] = DRUGMATRIX: Calcium Channel Type L, Benzothiazepine radioligand binding (ligand: [3H] Diltiazem); type: cell membranes, Rattus norvegicus, Wistar, Brain, Membrane; settings: Not Active = under 50% inhibition at 10 µM
[4] = DRUGMATRIX: Potassium Channel [KATP] radioligand binding (ligand: [3H] Glyburide); type: cell membranes, Membrane; settings: hit-t15, Not Active = under 50% inhibition at 10 µM
[5] = target: cGMP-specific 3',5'-cyclic phosphodiesterase (Homo sapiens, UniProt O76074); assay: DRUGMATRIX: Phosphodiesterase PDE5 enzyme inhibition (substrate: [3H]cGMP + cGMP); type: tissue-based, Platelet; settings: platelet; Not Active = under 50% inhibition at 10 µM
[6] = DRUGMATRIX: Phorbol Ester radioligand binding (ligand: [3H] PDBu); type: cell membranes, Mus musculus, ICR, Brain, Membrane; settings: Not Active = under 50% inhibition at 10 µM

Chain of Sodium-dependent dopamine transporter (Q01959 whole entry): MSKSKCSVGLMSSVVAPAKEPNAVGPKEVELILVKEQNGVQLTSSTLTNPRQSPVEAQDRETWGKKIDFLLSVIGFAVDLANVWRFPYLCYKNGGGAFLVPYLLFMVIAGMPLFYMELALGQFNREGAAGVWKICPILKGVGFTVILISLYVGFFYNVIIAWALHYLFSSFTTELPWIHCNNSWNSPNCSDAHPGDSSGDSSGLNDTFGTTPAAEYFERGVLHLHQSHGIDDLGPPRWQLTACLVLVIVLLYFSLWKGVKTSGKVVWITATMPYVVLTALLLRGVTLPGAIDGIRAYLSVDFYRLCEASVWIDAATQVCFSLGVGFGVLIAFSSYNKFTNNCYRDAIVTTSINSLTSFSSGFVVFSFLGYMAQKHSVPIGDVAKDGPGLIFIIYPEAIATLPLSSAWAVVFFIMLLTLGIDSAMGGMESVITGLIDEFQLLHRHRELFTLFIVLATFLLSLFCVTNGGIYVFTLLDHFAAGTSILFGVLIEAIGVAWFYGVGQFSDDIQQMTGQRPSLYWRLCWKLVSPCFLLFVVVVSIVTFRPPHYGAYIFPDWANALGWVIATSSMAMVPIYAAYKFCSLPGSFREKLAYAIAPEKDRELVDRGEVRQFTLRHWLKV

Molecule	IC50 ([1]; cho-k1)	IC50 [2]	IC50 [3]	Ki [3]	IC50 [4]	Ki [4]	IC50 [5]	IC50 [6]	Ki [6]	IC50 ([1]; read-out: IC50) [nM]	Ki ([1]; read-out: Ki) [nM]	IC50 ([3]; read-out: IC50) [nM]	Ki ([3]; read-out: Ki) [nM]	Ki ([1]; cho-k1)	Ki [2]	Ki [5]	IC50 ([4]; read-out: IC50) [nM]	Ki ([4]; read-out: Ki) [nM]
OC[C@H]1O[C@@H]2O[C@H]3[C@H](O)[C@@H](O)[C@@H](O[C@H]4[C@H](O)[C@@H](O)[C@@H](O[C@H]5[C@H](O)[C@@H](O)[C@@H](O[C@H]6[C@H](O)[C@@H](O)[C@@H](O[C@H]7[C@H](O)[C@@H](O)[C@@H](O[C@H]1[C@H](O)[C@H]2O)O[C@@H]7CO)O[C@@H]6CO)O[C@@H]5CO)O[C@@H]4CO)O[C@@H]3CO [ALFADEX]	Not Active	Not Active	Not Active	Not Active	Not Active	Not Active	Not Active	Not Active	Not Active									
COC(=O)C[C@](O)(CCC(C)(C)O)C(=O)O[C@@H]1C(OC)=C[C@]23CCCN2CCc2cc4c(cc2[C@H]13)OCO4 [HARRINGTONINE]	Not Active	Not Active	Not Active	Not Active	Not Active	Not Active	Not Active	Not Active	Not Active									
O=C1CN(/N=C/c2ccc([N+](=O)[O-])o2)C(=O)N1 [NITROFURANTOIN]	Not Active	Not Active	Not Active	Not Active	Not Active	Not Active	Not Active	Not Active	Not Active									
C[N+](C)(C)CCOC(N)=O.[Cl-] [CARBACHOL]	Not Active	Not Active	Not Active	Not Active	Not Active	Not Active	Not Active	Not Active	Not Active									
O=C(NCCN1CCOCC1)c1ccc(Cl)cc1 [MOCLOBEMIDE]	Not Active	Not Active	Not Active	Not Active	Not Active	Not Active	Not Active	Not Active	Not Active									
CC12CCC(CC1)C(C)(C)O2 [EUCALYPTOL]	Not Active	Not Active	Not Active	Not Active	Not Active	Not Active	Not Active	Not Active	Not Active									
CC(N)Cc1c[nH]c2ccc(OCc3cccs3)cc12 (stereo unspecified) [BW-723C86]		Not Active			Not Active	Not Active	Not Active	Not Active	Not Active	2680	2130	3470	3080					
CCN1C[C@]2(COC)[C@H](O)C[C@H](OC)[C@@]34[C@@H]5C[C@@]6(O)[C@H](OC(=O)c7ccccc7)[C@@H]5[C@@](OC(C)=O)([C@@H]([C@H](OC)[C@H]23)[C@@H]14)[C@@H](O)[C@@H]6OC [ACONITINE]	Not Active	Not Active	Not Active	Not Active	Not Active	Not Active	Not Active	Not Active	Not Active									
OC[C@H]1OC2C3[C@@H](CO)OC(O[C@H]4[C@H](O)[C@@H](O)[C@@H](O[C@H]5[C@H](O)[C@@H](O)[C@@H](O[C@H]6[C@H](O)[C@@H](O)[C@@H](O[C@H]7[C@H](O)[C@@H](O)[C@@H](O[C@H]8[C@H](O)[C@@H](O)[C@@H](O[C@H]9[C@H](O)[C@@H](O)C(OC1[C@H](O)[C@H]2O)O[C@@H]9CO)O[C@@H]8CO)O[C@@H]7CO)O[C@@H]6CO)O[C@@H]5CO)O[C@@H]4CO)[C@H](O)[C@H]3O	Not Active	Not Active	Not Active	Not Active	Not Active	Not Active	Not Active	Not Active	Not Active									
CN(CCOc1ccc(C[C@H](Nc2ccccc2C(=O)c2ccccc2)C(=O)O)cc1)c1ccccn1		Not Active	Not Active	Not Active	Not Active	Not Active	Not Active	Not Active	Not Active	13600	10800							
CCN1CCN(c2cc3c(cc2F)c(=O)c(C(=O)O)cn3C2CC2)CC1 [ENROFLOXACIN]	Not Active	Not Active	Not Active	Not Active	Not Active	Not Active	Not Active	Not Active	Not Active									
NS(=O)(=O)c1cc(C(=O)O)c(NCc2ccco2)cc1Cl [FUROSEMIDE]	Not Active	Not Active	Not Active	Not Active	Not Active	Not Active	Not Active	Not Active	Not Active									
NC(=O)NC(=O)Cc1ccccc1 [PHENACEMIDE]	Not Active	Not Active	Not Active	Not Active	Not Active	Not Active	Not Active	Not Active	Not Active									
C[C@]12CC[C@@H](O)C[C@@H]1CC[C@@H]1[C@@H]2CC[C@]2(C)C(=O)CC[C@@H]12 [ANDROSTERONE]	Not Active	Not Active	Not Active	Not Active	Not Active	Not Active	Not Active	Not Active	Not Active									
ClC1=C(Cl)[C@]2(Cl)[C@@H]3[C@@H]4C[C@@H]([C@H]5O[C@@H]45)[C@@H]3[C@@]1(Cl)C2(Cl)Cl [DIELDRIN]	Not Active	Not Active	Not Active	Not Active	Not Active	Not Active	Not Active	Not Active	Not Active									
CC(=O)[C@]1(O)Cc2c(O)c3c(c(O)c2[C@@H](O[C@H]2C[C@H](N)[C@H](O)[C@H](C)O2)C1)C(=O)c1ccccc1C3=O [IDARUBICIN]	Not Active	Not Active	Not Active	Not Active	Not Active	Not Active	Not Active	Not Active	Not Active									
COC(=O)Nc1nc2ccc(Sc3ccccc3)cc2[nH]1 [FENBENDAZOLE]	Not Active	Not Active	Not Active	Not Active	Not Active	Not Active	Not Active	Not Active	Not Active									
Cc1ccnc2c1NC(=O)c1cccnc1N2C1CC1 [NEVIRAPINE]	Not Active	Not Active	Not Active	Not Active	Not Active	Not Active	Not Active	Not Active	Not Active									
COPPER(II) OXIDE	Not Active	Not Active	Not Active	Not Active	Not Active	Not Active	Not Active	Not Active	Not Active					Not Active	Not Active	Not Active		
OC[C@H]1O[C@@H]2O[C@H]3[C@H](O)[C@@H](O)[C@@H](O[C@H]4[C@H](O)[C@@H](O)[C@@H](O[C@H]5[C@H](O)[C@@H](O)[C@@H](O[C@H]6[C@H](O)[C@@H](O)[C@@H](O[C@H]7[C@H](O)[C@@H](O)[C@@H](O[C@H]8[C@H](O)[C@@H](O)[C@@H](O[C@H]1[C@H](O)[C@H]2O)O[C@@H]8CO)O[C@@H]7CO)O[C@@H]6CO)O[C@@H]5CO)O[C@@H]4CO)O[C@@H]3CO [BETADEX]	Not Active	Not Active	Not Active	Not Active	Not Active	Not Active	Not Active	Not Active	Not Active									
O=C(O)CO [GLYCOLIC ACID]	Not Active	Not Active	Not Active	Not Active	Not Active	Not Active	Not Active	Not Active	Not Active									
COc1cc(NC(C)CCCN)c2ncccc2c1 (stereo unspecified) [PRIMAQUINE]	Not Active	Not Active	Not Active	Not Active	Not Active	Not Active	Not Active	Not Active	Not Active									
COc1ccc(Cl)cc1C(=O)NCCc1ccc(S(=O)(=O)NC(=O)NC2CCCCC2)cc1 [GLYBURIDE]	Not Active	Not Active	Not Active	Not Active			Not Active	Not Active	Not Active								3.8	0.432
CCO [ALCOHOL]	Not Active	Not Active	Not Active	Not Active	Not Active	Not Active	Not Active	Not Active	Not Active									
